From PMC5564600 (Oncotarget, 2017)

Legend:
Experiment in all cases: biochemical
Assay type in all cases: binding
panel of 442 kinases [1] = biological target: T1, panel of 442 kinases (Homo sapiens, UniProt Q9BRS2); settings: kinase RIOK1; for remaining activity at 1 µM: read-out: RIOK1 (% of control at 1 µM)
T1 construct: purchased Ambit Biosciences (scanMAXX KINOMEscan)
T1 sequence (Q9BRS2 1-568): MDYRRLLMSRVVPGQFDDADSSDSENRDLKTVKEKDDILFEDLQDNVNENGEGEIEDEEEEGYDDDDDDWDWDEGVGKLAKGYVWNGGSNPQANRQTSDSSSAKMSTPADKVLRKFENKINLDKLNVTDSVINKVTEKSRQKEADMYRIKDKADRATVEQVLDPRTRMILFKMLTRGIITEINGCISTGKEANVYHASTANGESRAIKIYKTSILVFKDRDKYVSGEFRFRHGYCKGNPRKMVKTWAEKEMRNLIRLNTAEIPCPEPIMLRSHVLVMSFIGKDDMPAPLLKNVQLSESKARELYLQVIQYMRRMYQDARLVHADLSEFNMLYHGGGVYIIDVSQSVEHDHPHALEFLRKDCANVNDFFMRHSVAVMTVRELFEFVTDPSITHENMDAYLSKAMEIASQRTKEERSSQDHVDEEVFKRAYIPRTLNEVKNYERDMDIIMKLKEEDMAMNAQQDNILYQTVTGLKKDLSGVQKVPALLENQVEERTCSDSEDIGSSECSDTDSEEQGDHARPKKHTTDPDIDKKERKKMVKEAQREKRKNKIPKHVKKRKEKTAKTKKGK

panel of 442 kinases [2] = biological target: T2, panel of 442 kinases (Homo sapiens, UniProt Q13555); settings: CAMK2G; for remaining activity at 1 µM: read-out: % of control at 1 µM
T2 construct: purchased Ambit Biosciences (scanMAXX KINOMEscan)

panel of 442 kinases [3] = biological target: T3, panel of 442 kinases (Homo sapiens, UniProt Q9H2K8); settings: kinase TAOK3; for remaining activity at 1 µM: read-out: TAOK3 (% of control at 1 µM)
T3 construct: purchased Ambit Biosciences (scanMAXX KINOMEscan)
T3 sequence (Q9H2K8 1-898): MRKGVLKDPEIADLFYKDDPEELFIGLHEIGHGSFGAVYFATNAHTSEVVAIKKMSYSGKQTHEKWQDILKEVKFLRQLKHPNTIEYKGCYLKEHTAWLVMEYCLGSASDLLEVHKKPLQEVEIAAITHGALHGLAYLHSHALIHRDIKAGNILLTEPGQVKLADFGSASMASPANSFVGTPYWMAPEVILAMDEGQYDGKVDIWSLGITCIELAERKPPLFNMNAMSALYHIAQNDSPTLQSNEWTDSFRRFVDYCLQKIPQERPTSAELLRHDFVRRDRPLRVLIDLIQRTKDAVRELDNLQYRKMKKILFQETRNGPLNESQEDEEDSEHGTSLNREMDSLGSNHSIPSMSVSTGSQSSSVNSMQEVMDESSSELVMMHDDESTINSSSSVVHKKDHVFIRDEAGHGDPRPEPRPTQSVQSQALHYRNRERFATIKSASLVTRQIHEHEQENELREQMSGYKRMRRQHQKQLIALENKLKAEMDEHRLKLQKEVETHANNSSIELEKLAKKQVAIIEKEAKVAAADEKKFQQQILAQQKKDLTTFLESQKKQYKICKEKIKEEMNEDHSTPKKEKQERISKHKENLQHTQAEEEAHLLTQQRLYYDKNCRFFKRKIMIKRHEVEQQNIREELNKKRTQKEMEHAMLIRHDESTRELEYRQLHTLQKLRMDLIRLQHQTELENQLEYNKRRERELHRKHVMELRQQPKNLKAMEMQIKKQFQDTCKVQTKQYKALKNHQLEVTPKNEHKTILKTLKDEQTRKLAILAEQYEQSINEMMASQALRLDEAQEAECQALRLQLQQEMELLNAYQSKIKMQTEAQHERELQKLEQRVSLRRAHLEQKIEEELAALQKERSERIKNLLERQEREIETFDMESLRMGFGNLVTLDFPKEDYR

panel of 442 kinases [4] = biological target: T4, panel of 442 kinases (Homo sapiens, UniProt P33981); settings: kinase TTK; for remaining activity at 1 µM: read-out: TTK (% of control at 1 µM)
T4 construct: purchased Ambit Biosciences (scanMAXX KINOMEscan)
T4 sequence (P33981 1-857): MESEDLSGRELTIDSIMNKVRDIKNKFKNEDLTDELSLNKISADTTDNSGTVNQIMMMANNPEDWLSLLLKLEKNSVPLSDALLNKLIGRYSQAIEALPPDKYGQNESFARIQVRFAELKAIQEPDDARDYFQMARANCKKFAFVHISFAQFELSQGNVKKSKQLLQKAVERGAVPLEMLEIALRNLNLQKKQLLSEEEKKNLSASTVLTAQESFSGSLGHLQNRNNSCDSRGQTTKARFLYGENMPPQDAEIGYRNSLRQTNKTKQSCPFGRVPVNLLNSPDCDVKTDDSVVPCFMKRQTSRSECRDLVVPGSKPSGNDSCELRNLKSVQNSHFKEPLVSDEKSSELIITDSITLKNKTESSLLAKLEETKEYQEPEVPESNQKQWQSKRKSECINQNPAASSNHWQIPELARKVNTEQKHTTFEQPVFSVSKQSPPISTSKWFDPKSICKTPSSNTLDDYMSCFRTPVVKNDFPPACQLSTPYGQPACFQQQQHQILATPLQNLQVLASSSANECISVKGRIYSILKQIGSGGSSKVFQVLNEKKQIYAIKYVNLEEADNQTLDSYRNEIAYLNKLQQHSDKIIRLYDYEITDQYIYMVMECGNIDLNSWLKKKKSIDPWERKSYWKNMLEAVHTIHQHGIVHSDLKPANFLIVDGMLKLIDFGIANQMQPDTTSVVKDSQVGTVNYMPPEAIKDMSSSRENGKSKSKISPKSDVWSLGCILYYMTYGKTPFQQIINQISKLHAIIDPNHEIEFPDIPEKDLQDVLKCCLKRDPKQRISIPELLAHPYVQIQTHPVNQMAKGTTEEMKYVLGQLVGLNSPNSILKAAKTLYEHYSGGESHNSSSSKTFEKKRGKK

panel of 442 kinases [5] = biological target: T5, panel of 442 kinases (Homo sapiens, UniProt Q9H3Y6); settings: kinase SRMS; for remaining activity at 1 µM: read-out: SRMS (% of control at 1 µM)
T5 construct: purchased Ambit Biosciences (scanMAXX KINOMEscan)
T5 sequence (Q9H3Y6 whole entry): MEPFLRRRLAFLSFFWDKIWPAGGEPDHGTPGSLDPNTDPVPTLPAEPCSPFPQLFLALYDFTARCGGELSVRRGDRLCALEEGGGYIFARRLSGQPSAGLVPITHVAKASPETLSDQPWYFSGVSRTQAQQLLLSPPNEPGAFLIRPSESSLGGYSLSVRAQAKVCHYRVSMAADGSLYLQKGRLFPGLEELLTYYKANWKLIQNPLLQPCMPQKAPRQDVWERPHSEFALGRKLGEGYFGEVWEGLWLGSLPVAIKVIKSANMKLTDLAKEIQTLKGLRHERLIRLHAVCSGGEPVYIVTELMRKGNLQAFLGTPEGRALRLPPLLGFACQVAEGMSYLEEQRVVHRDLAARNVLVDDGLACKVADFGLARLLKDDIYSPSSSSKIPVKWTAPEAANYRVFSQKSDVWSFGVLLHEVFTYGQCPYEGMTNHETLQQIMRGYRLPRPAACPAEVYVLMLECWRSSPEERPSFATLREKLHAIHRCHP

T2 sequence (Q13555 whole entry): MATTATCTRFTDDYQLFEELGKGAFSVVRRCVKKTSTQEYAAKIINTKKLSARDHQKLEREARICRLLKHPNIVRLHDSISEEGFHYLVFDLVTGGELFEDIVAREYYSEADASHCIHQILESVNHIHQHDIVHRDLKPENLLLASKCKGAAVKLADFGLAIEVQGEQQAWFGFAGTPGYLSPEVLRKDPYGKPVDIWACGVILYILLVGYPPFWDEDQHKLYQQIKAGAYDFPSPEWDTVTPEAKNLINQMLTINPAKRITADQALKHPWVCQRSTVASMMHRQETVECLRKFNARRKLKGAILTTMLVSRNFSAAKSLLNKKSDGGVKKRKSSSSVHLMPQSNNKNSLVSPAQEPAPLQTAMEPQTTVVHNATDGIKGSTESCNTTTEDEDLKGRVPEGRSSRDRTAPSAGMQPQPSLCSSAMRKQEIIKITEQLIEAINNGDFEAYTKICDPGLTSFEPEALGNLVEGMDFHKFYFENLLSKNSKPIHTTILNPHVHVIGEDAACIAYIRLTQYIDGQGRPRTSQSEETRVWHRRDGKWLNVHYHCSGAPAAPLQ

SMILES	remaining activity at 1 µM (panel of 442 kinases [1]) [%]	remaining activity at 10 µM (panel of 442 kinases [1]; 10 µM, read-out: RIOK1 (% of control at 10 µM)) [%]	remaining activity at 1 µM (panel of 442 kinases [2]) [%]	remaining activity at 10 µM (panel of 442 kinases [2]; 10 µM, read-out: % of control at 10 µM) [%]	remaining activity at 1 µM (panel of 442 kinases [3]) [%]	remaining activity at 10 µM (panel of 442 kinases [3]; 10 µM, read-out: TAOK3 (% of control at 10 µM)) [%]	remaining activity at 1 µM (panel of 442 kinases [4]) [%]	remaining activity at 10 µM (panel of 442 kinases [4]; 10 µM, read-out: TTK (% of control at 10 µM)) [%]	remaining activity at 1 µM (panel of 442 kinases [5]) [%]	remaining activity at 10 µM (panel of 442 kinases [5]; 10 µM, read-out: SRMS (% of control at 10 µM)) [%]
Nc1cc(C(F)(F)F)c(-c2cc(N3CCOCC3)nc(N3CCOCC3)n2)cn1 [Buparlisib]	89	81	100	100	89	78	100	85	100	100
Cn1c(=O)n(-c2ccc(C(C)(C)C#N)cc2)c2c3cc(-c4cnc5ccccc5c4)ccc3ncc21 [Dactolisib, 2-methyl-2-[4-(3-methyl-2-oxo-8-quinolin-3-yl-2,3-dihydroimidazo[4,5-c]quinolin-1-yl)-phenyl] propionitrile]	66		88		100		49		88	
COc1ncc(-c2ccc3nccc(-c4ccnnc4)c3c2)cc1NS(=O)(=O)c1ccc(F)cc1F [Omipalisib]	100		100		100		76		90	
FC(F)c1nc2ccccc2n1-c1nc(N2CCOCC2)nc(N2CCOCC2)n1 [ZSTK474, 2-(difluoromethyl)-1-[4,6-di(4-morpholinyl)-1,3,5-triazin-2-yl]-1H-benzimidazole]	84		100		92		100		80	
